Test results taken from patent publication US20210309631A1, “SALT OF CYCLOHEXANE DERIVATIVE” (priority 2018, published 2021).
Where two headings read alike, the source gives them in different places.

How the values were obtained:
[1] = Hygroscopicity (DVS) experiment, 25° C./80% relative humidity; type: physicochemical; details: for Hygroscopicity / Vapor sorption: 25° C./80% relative humidity; for hygroscopicity (summary in words): within one week
Protocol: Dynamic vapor sorption curves were collected on a DVS Intrinsic by SMS (Surface Measurement Systems).
20 mg sample of the crystal forms of the Examples and Comparative Examples are placed in the environment of 25° C./80% relative humidity for a dynamic vapor sorption (DVS) test, and the test results […] are shown in Table 5.

solubility in water = type: physicochemical
[2] = Plasma pharmacokinetics in SD rats after single intragastric administration (Example 7); type: in vivo; details: intragastric 1 mg/kg; for MRT inf: read-out: MRT0-∞
Protocol: The in vivo absorption process and characteristics of the free base and four salts thereof (sulfate, hydrochloride salt, phosphate, maleate) of compound (I) in rats were studied. The pharmacokinetics of a single intragastric administration of 1 mg/kg of a compound of Formula I and four salts thereof (calculated by free base concentration in salt form) were studied in SD rats.
SD rats were given a single intragastric administration of 1 mg/kg free base of Example 1 and four salts thereof (including hydrochloride salt from Example 2, sulfate from Example 3, phosphate from Example 4 and maleate from Example 5). There were 4 male rats in each group. The concentration of the compound of Formula I in plasma was determined, and the pharmacokinetic parameters were calculated according to the concentration-time curve.

[3] = In vivo individual difference analysis: individual plasma concentration versus time in rats (Example 8); design: species or system SD rats; details: intragastric 1 mg/kg; for Plasma Concentrations of Compound of Formula I: listed as Hydrochloride Salt of Compound of Formula I
Protocol: Compound of Formula I and salts thereof (sulfate, hydrochloride salt, phosphate, maleate), supplied by Shanghai Jingxin Biopharmaceutical Co., Ltd. • Strain: SD rats; Gender: male; Body weight: about 250 grams; Source: shanghai Jiesijie Experimental Animal Co., Ltd Route: single intragastric administration; Capacity: measured in 10 mL/kg body weight Preparation: weighing appropriate amount of the free base or salt of the compound of Formula I, adding a small amount of 0.5% CMC-Na to grind, adding 0.5% CMC-Na to the volume. The concentration is measured as the base. 20 SD rats were divided into 5 groups with 4 rats in each group, fasted for 12 h and drank freely before administration. […] The blood was anticoagulated with 1% heparin, the plasma was separated by 8000 rpm centrifugation for 4 min and stored at -40° C. for testing. LC-MS/MS Method. Pharmacokinetic parameters after administration in rats were calculated using a non-compartmental model of DAS 2.0 software.

[4] = Crystal form stability on heating (XRPD before and after heating); type: physicochemical
[5] = DVS, listed as Example 4 phosphate
[6] = Mean ± SD, non-compartmental model, listed as Phosphate
[7] = DVS, listed as Example 2 hydrochloride salt
[8] = male, SD, rat, plasma, po, 1 mg/kg, Mean ± SD, non-compartmental model
[9] = male, SD, rat, plasma, po, 1 mg/kg, Mean ± SD, non-compartmental model, read-out: Tmax

CN(C)C(=O)N[C@H]1CC[C@H](CCN2CCN(c3cccc4ccsc34)CC2)CC1 [Example 4, N′-[trans-4-[2-[7-(benzo[b]thiophene)-7-piperazinyl]ethyl]cyclohexyl]-N,N-dimethylurea]
Hygroscopicity [1, 5]: Slight
Vapor sorption [1, 5]: 0.61%
solubility in water (solubility in water; listed as phosphate Form A): greater than 7.6 mg/ml
MRT0-∞ [2, 6]: 3.06 ± 0.434 h
Tmax [2, 6]: 0.833 ± 0.333 h
t1/2 [2, 6]: 3.25 ± 1.23 h

CN(C)C(=O)N[C@H]1CC[C@H](CCN2CCN(c3cccc4ccsc34)CC2)CC1 [Example 2, N′-[trans-4-[2-[7-(benzo[b]thiophene)-7-piperazinyl]ethyl]cyclohexyl]-N,N-dimethylurea]
Hygroscopicity [1, 7]: Almost no
Vapor sorption [1, 7]: 0.21%
hygroscopicity (summary in words) ([1]; DVS): almost no hygroscopicity or slight hygroscopicity
solubility in water (solubility in water; listed as hydrochloride salt Form B): greater than 4.6 mg/ml
AUC [2, 8]: 96.9 ± 29.3 ng·h/mL
AUC(0-inf) [2, 8]: 99.1 ± 28.9 ng·h/mL
Cmax [2, 8]: 36.5 ± 13.1 ng/mL
half-life [2, 8]: 4.72 ± 2.66 h
MRT inf [2, 8]: 4.27 ± 2.2 h
Tmax [2, 9]: 0.625 ± 0.25 h
Plasma Concentrations of Compound of Formula I ([3]; 0.333 h after administration, Mean ± SD): 29.4 ± 16.4 ng/mL
Plasma Concentrations of Compound of Formula I ([3]; 0.333 h after administration, rat 1♂): 37.6 ng/mL
Plasma Concentrations of Compound of Formula I ([3]; 0.333 h after administration, rat 2♂): 25.9 ng/mL
Plasma Concentrations of Compound of Formula I ([3]; 0.333 h after administration, rat 3♂): 8.18 ng/mL
Plasma Concentrations of Compound of Formula I ([3]; 0.333 h after administration, rat 4♂): 45.9 ng/mL
Plasma Concentrations of Compound of Formula I ([3]; 0.5 h after administration, Mean ± SD): 35.1 ± 15.6 ng/mL
Plasma Concentrations of Compound of Formula I ([3]; 0.5 h after administration, rat 1♂): 48.3 ng/mL
Plasma Concentrations of Compound of Formula I ([3]; 0.5 h after administration, rat 2♂): 30.6 ng/mL
Plasma Concentrations of Compound of Formula I ([3]; 0.5 h after administration, rat 3♂): 15.0 ng/mL
Plasma Concentrations of Compound of Formula I ([3]; 0.5 h after administration, rat 4♂): 46.4 ng/mL
Plasma Concentrations of Compound of Formula I ([3]; 1 h after administration, rat 1♂): 32.4 ng/mL
Plasma Concentrations of Compound of Formula I ([3]; 1 h after administration, rat 2♂): 25.3 ng/mL
Plasma Concentrations of Compound of Formula I ([3]; 1 h after administration, rat 3♂): 20.8 ng/mL
Plasma Concentrations of Compound of Formula I ([3]; 1 h after administration, rat 4♂): 42.7 ng/mL

CN(C)C(=O)N[C@H]1CC[C@H](CCN2CCN(c3cccc4ccsc34)CC2)CC1 [Comparative Example 12, N′-[trans-4-[2-[7-(benzo[b]thiophene)-7-piperazinyl]ethyl]cyclohexyl]-N,N-dimethylurea]
stability of the crystal form ([4]; compared with maleate Form A, after being heated): lower than that of maleate Form A
crystal form after heating ([4]; heated to 150° C. and cooled to room temperature, XRPD): turned to maleate Form A

CN(C)C(=O)N[C@H]1CC[C@H](CCN2CCN(c3cccc4ccsc34)CC2)CC1.O=C(O)/C=C\C(=O)O [Example 5, N′-[trans-4-[2-[7-(benzo[b]thiophene)-7-piperazinyl]ethyl]cyclohexyl]-N,N-dimethylurea]
hygroscopicity compared with other salts ([1]; DVS): less hygroscopic than other salts
Hygroscopicity ([1]; DVS): Almost no
Vapor sorption ([1]; DVS): 0.12%
hygroscopicity (summary in words) ([1]; DVS): almost no hygroscopicity or slight hygroscopicity
The crystal form changes after DVS testing or not ([1]; after DVS testing): No
solubility (solubility in water): > 2600 µg/mL
bioavailability (in words) ([2]; compared with other salts): highly bioavailable
half-life (in words) ([2]; compared with other salts): relatively long half-life
AUC [2, 8]: 124 ± 5.79 ng·h/mL
AUC(0-inf) [2, 8]: 125 ± 7 ng·h/mL
Cmax [2, 8]: 45.4 ± 2.81 ng/mL
half-life [2, 8]: 4.67 ± 2.17 h
MRT inf [2, 8]: 3.07 ± 0.531 h
Tmax [2, 9]: 0.75 ± 0.289 h
individual difference of plasma concentration ([3]; compared with other salts): smallest
